From patent EP4656640A1, “IRAK4 DEGRADER AND USE THEREOF” (Shanghai Qilu Pharmaceutical Research and Development …, priority 2023, dated 2024)
Read-outs that look alike come from different tables or passages of the source.

What was measured:
[1] = mice, 8 hours after last administration
Procedure: Experimental animals: SPF-grade male C57BL/6J mice aged 6-8 weeks.
Preparation of compound: 10% DMSO + 50% PEG400 + 40% sterile water for injection. The compound was dissolved in DMSO, followed by the addition of PEG400 and sterile water for injection, and the solution was adjusted to clarity with 6N hydrochloric acid.
Compound administration and IL-33 inflammatory induction: The mice were randomly grouped according to body weight and orally administered with the compound at final doses of 15 mg/kg, 50 mg/kg, and 150 mg/kg, twice daily. At 4 hours after the last administration of the compound, the mice were intraperitoneally injected with 1 µg/100 µL PBS of IL-33 for inflammatory induction.
Termination, sample collection, and data: Plasma, peritoneal lavage fluid, and spleen were collected for subsequent sample index detection.
The experiment was terminated 8 hours after the last administration. The mice were anesthetized, and cardiac blood was collected. The blood samples were anticoagulated with EDTA-K2, centrifuged at 3500 rpm for 15 minutes, and the upper plasma was collected.

IRAK4 [2] = molecular target: T1, IRAK4 (Homo sapiens, UniProt Q9NWZ3); assay type: cell-based; set-up: endogenous in cells; host or cells: OCI-LY3; settings: read-out: OCI-LY3 DC50; OCI-LY3 cells
T1 sequence (Q9NWZ3 1-460): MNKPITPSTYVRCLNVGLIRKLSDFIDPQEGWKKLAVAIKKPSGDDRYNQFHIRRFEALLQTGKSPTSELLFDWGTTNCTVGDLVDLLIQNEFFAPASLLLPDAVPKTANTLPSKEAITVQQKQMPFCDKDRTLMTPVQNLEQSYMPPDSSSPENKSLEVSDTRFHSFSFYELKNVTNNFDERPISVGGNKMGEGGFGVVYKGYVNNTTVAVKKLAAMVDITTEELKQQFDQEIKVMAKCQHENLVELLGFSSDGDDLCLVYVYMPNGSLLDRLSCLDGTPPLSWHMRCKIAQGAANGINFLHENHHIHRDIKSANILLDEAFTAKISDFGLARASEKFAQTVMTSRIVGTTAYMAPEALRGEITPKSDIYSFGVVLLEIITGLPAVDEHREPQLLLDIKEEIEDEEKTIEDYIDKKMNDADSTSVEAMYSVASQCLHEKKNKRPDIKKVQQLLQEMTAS

IRAK4 [3] = molecular target: T2, IRAK4 (Mus musculus, UniProt Q8R4K2); test: In vivo degradation of IRAK4 in mouse spleen, IL-33 model (LC-MS); set-up: species or system C57BL/6J mice; settings: Example 22 at 50 mpk, comparable drug concentrations in the spleen, FIG. 2
T2 sequence (Q8R4K2 1-459): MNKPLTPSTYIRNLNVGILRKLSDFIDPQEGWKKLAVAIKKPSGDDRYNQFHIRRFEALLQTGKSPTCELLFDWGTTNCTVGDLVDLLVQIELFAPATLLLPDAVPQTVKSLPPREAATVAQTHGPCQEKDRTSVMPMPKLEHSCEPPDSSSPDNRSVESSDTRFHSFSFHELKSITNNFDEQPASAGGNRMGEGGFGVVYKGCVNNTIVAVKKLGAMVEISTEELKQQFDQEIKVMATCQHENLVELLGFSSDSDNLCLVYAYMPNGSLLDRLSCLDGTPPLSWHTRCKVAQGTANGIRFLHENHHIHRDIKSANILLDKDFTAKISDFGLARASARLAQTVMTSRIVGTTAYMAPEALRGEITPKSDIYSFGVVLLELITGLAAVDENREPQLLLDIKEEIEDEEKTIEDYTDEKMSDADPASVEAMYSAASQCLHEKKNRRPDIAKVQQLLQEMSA

IRAK4 [4] = molecular target: T1, IRAK4; test: Degradation of IRAK4 in monocytes of human PBMCs (flow cytometry); assay type: cell-based; set-up: endogenous in cells; settings: human PBMC monocytes, 24 hours incubation
Procedure: The degradation level of IRAK4 in monocytes of human peripheral blood mononuclear cells (hPBMCs) was detected by flow cytometry.
On day 1, the cells were seeded at a density of 2 × 10^5 cells per well in 100 µL in a 96-well plate.
The compounds were dissolved in DMSO to a final concentration of 10 mM, and then diluted with culture medium at a 1:5 concentration gradient to prepare 10 concentrations. The diluted solutions were added to the cells to obtain a maximum final concentration of 2 µM. Wells containing cells treated with 0.1% DMSO served as the positive control
The cells were incubated at 37°C in a 5% CO2 incubator for 24 hours.
The cells were stained for viability discrimination using the LIVE/DEAD™ Fixable Blue Dead Cell Stain Kit, and surface staining of monocytes was performed with PE Mouse Anti-Human CD14, followed by incubation at 4°C for 30 minutes.
Fix buffer I, equal in volume to the cultured cells, was added, and the cells were fixed at 37°C for 10 minutes.
150 µL of Perm III reagent was added, and the cells were incubated at 4°C for 30 minutes to permeabilize the membranes.
Flow cytometry analysis was performed using a flow cytometer.
The flow cytometry data were analyzed using Flowjo software. Data presentation and DC50 calculation were performed using Prism 8.0.2 (GraphPad).

inflammatory factors = test: Inflammatory factors in plasma and peritoneal lavage fluid, IL-33-induced acute inflammation in mice (ELISA); assay type: in vivo, C57BL/6J mice; settings: FIG. 1
Procedure: IL-33, a member of the IL-1 cytokine family, is the ligand for IL-1 receptor-like 1 or ST2. […] The effect of the compounds on inflammation in the IL-1R signaling pathway was investigated using an acute inflammatory model in mice induced by intraperitoneal injection of IL-33.
Preparation of IL-33 inducer: The mouse recombinant IL-33 powder was prepared as a 1 µg/µL stock solution. When using, 40 µL of the 1 µg/µL IL-33 solution was added to 3960 µL of PBS, mixed well by inversion, to obtain 4 mL of IL-33 solution with a concentration of 1 µg/100 µL, which was prepared freshly before use.

[5] = Mouse pharmacokinetics, oral (Experiment 2); assay type: in vivo, C57BL/6 mice; settings: mice, PO 100 mg/kg, free access to food, plasma
Procedure: Two male C57BL/6 mice were allowed free access to food and water. The dose for PO administration was 100 mg/kg, with an administration volume of 10 mL/kg.
After administration, blood samples (0.025 mL) were collected from the mice via venipuncture at 0.083, 0.25, 0.5, 1, 2, 4, 8, and 24 hours. The samples were placed in EDTA-K2 tubes and centrifuged at 2000 g for 5 minutes at 4°C. The plasma was separated and stored at -70°C.
• 1) 5 µL of plasma sample was added to 100 µL of acetonitrile for precipitation. After mixing, the mixture was centrifuged at 5800 rmp for 10 minutes. • 2) The processed supernatant solution was taken for LCMS/MS analysis to determine the concentration of the test compound.
• LC-MS/MS instrument: LCMS/MS-45 (Triple Quad 6500+) • Chromatographic column: Waters BEH C18 (2.1 × 50 mm, 1.7 µm) • Mobile phase: Solution A was H2O-0.025% FA-1 mM NH4OAc, and Solution B was MeOH-0.025% FA-1 mM NH4OAc. • Flow rate: 0.6 mL/min • Elution time: Gradient elution for 0-2.5 minutes.
The main pharmacokinetic parameters were calculated using WinNonlin 8.2. […] Table 7. Pharmacokinetic parameters of some compounds of the present disclosure administered orally to mice

Row | SMILES | C8hr Plasma ([1]; PO 15 mpk twice daily) [µg/mL] | C8hr Spleen ([1]; PO 15 mpk twice daily) [µg/mL] | C8hr Plasma ([1]; PO 50 mpk twice daily) [µg/mL] | C8hr Spleen ([1]; PO 50 mpk twice daily) [µg/mL] | C8hr Plasma ([1]; PO 150 mpk twice daily) [µg/mL] | C8hr Spleen ([1]; PO 150 mpk twice daily) [µg/mL] | DC50 (IRAK4 [2]) [nM] | degradation effect of IRAK4 in mouse spleen compared with KT-474 at 150 mpk (IRAK4 [3]) | DC50 (IRAK4 [4]) [nM] | anti-inflammatory effect compared with KT474 (inflammatory factors; at comparable drug concentrations in plasma) | inflammatory factors in mouse plasma and peritoneal lavage fluid (inflammatory factors; mice, PO 15, 50 and 150 mg/kg, IL-33 induction) | AUC(0-t) at 24 h [5] [µg·h/mL] | Cmax [5] [µg/mL] | Tmax [5] [h]
1 | Cn1c(=O)n(C2CCC(=O)NC2=O)c2cccc(C#CCCN3CCC4(CC3)CC(n3cc(NC(=O)c5cnn6ccc(N7C[C@H]8C[C@@H]7CO8)nc56)c(C(F)F)n3)C4)c21 (stereo partly drawn) [Example 22] | 0.054 | 0.369 | 0.517 | 6.135 | 1.392 | 16.257 | 1.3 | 2-3 times | 0.13 | superior | concentration-dependent reduction |  |  | 
2 | Cn1c(=O)n(C2CCC(=O)NC2=O)c2cccc(C#CCOC34CCC(CN5CCC6(CC5)CC(n5cc(NC(=O)c7cnn8ccc(N9C[C@H]%10C[C@@H]9CO%10)nc78)c(C(F)F)n5)C6)(CC3)CC4)c21 (stereo partly drawn) [Example 52] |  |  |  |  |  |  |  |  | 0.65 |  |  | 40.1 | 2.21 | 8
